Results taken from publication PMC10675840, “Structure-function analysis of ceTIR-1/hSARM1 explains the lack of Wallerian axonal degeneration in C. elegans” (Cell reports, 2023).
Numbering of substitutions follows the chain as printed.

Key:
Experiment in all cases: HPLC NAD+ consumption, Michaelis-Menten fit
Format in all cases: biochemical
Settings in all cases: […] C, […] min, pH […]
ceTIR-1 [1] = biological target: T1, ceTIR-1 (Caenorhabditis elegans, UniProt Q86DA5, R828K)
T1 construct: gene tir-1; near-intact ARM-SAM-SAM-TIR, residues 162-872 (HMD...QQR), N-terminal 6xHis + TEV site, HEK293F expression, mostly 9-mer ring, partly dissociated
T1 sequence (Q86DA5 216-926 R828K): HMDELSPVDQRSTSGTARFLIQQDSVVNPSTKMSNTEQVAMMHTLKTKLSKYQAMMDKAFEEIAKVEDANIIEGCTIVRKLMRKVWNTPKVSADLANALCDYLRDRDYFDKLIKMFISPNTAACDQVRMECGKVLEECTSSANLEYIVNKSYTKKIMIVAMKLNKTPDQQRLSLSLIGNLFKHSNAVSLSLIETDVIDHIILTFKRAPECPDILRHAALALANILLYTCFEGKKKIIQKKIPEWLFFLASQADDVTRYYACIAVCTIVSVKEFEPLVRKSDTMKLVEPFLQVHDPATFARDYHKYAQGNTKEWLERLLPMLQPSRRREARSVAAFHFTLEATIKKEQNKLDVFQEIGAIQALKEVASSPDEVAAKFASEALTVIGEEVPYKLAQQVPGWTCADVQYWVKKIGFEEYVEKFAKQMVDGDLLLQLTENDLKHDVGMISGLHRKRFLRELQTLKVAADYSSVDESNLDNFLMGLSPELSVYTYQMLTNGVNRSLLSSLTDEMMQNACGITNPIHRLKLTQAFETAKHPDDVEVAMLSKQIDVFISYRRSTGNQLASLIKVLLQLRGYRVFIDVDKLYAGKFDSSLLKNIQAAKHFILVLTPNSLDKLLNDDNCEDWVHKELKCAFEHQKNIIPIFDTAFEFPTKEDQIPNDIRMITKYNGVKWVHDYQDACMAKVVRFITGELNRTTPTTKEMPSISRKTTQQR

ceTIR-1 [2] = biological target: T2, ceTIR-1 (Caenorhabditis elegans, UniProt Q86DA5, D888E)
T2 construct: gene tir-1; near-intact ARM-SAM-SAM-TIR, residues 162-872 (HMD...QQR), N-terminal 6xHis + TEV site, HEK293F expression, mostly 9-mer ring, partly dissociated
T2 sequence (Q86DA5 216-926 D888E): T1 sequence (Q86DA5 216-926 R828K) with K613R, D673E

ceTIR-1 [3] = biological target: T3, ceTIR-1 (Caenorhabditis elegans, UniProt Q86DA5, F863W)
T3 construct: gene tir-1; near-intact ARM-SAM-SAM-TIR, residues 162-872 (HMD...QQR), N-terminal 6xHis + TEV site, HEK293F expression, mostly 9-mer ring, partly dissociated
T3 sequence (Q86DA5 216-926 F863W): T1 sequence (Q86DA5 216-926 R828K) with K613R, F648W

NC(=O)c1ccc[n+]([C@@H]2O[C@H](COP(=O)(O)OP(=O)(O)OC[C@H]3O[C@@H](n4cnc5c(N)ncnc54)[C@H](O)[C@@H]3O)[C@@H](O)[C@H]2O)c1 [NAD^+]
Km (ceTIR-1 [1]): none of these substitutions had any significant effect on Km | Km (ceTIR-1 [2]): none of these substitutions had any significant effect on Km | Km (ceTIR-1 [3]): none of these substitutions had any significant effect on Km
